“Also recorded” adds a separate entry of the source.
Tests used:
[1] = HPLC stability with excess glutathione tripeptide; assay type: in vitro ADME; details: 100 μM compound, 10 mM glutathione, HEPES buffer, 20 h
Source text: Considering the structure of 13a, the pentafluorobenzene is the functional moiety that is likely most susceptible to nucleophilic attack from the GST enzyme. Specifically, the para position is highly electron withdrawn enabling for nucleophilic aromatic substitution to take place. […] Data points obtained with the analytical HPLC experiments were fit using ORIGIN software using an exponential decay equation. This equation models for chemical/biological processes whereby a rate in which something happens is proportional to the amount left. Each drug molecule has a certain probability of being metabolized in a small time interval. Thus, as a drug concentration goes down, the rate of its metabolism goes down as well.

[2] = target: wildtype STAT3 protein (Homo sapiens, UniProt P40763); test: Fluorescence polarization competitive binding, STAT3; details: FP; converted from IC50 with Equation 1
Protocol: Binding of compounds of the disclosure to the STAT5b SH2 domain was assessed using fluorescence polarization assays similar to those previously reported.^15 Analogous assays were also performed with STAT3 protein to determine the specificity of the compounds (13a-d). Fluorescence assays were performed in flat black 384-well plates (Corning) and fluorescence polarization measurements were taken with the Infinite M1000 machine (Tecan, Crailsheim, Germany). The buffer conditions for all assays were 20 mM HEPES, 50 mM NaCl, 1 mM EDTA, 2 mM dithiothreitol, pH 7.5 and the final DMSO concentration in the wells was kept constant at 10%.
Calibration curves for the wildtype STAT3 and STAT5b proteins were derived by incubating a 10 nM final concentration of fluoresceinated-phosphopeptide (5-FAM-pYLPQTC (SEQ ID NO:1) and 5-FAM-GpYLVLDKW (SEQ ID NO:2) for STAT3 and STAT5B, respectively), which are known to bind the SH2 domains, with increasing concentrations of protein (as shown in FIG. 3). The point at which 80% of the fluoresceinated-phosphopeptide was bound was used as the optimal protein concentration required for the competitive fluorescent polarization assays.
For the STAT5b fluorescence polarization assays, the 5-FAM-GpYLVLDKW (SEQ ID NO:2) peptide and STAT5b protein were first incubated for 30 minutes at room temperature. Compounds were titrated at concentrations ranging from 1->60,000 nM and incubated for a further 15 minutes at which point fluorescence polarization measurements were taken in triplicate. The final well concentrations of the fluoresceinated-phosphopeptide and STAT5B were 10 nM and 250 nM, respectively. The same protocol was used for the analogous STAT3 FP assays, except that the 5-FAM-pYLPQTC (SEQ ID NO:1) peptide was used as a probe and the final STAT3 concentration was 150 nM in each well.
The resulting fluorescence polarization measurements were normalized and plotted against compound concentration on a logarithmic scale. The raw data was fitted with a standard dose-normalized response inhibition curve using GraphPad Prism 6 software. The IC50 values were converted to Ki values using Equation 1, which corrects for protein concentration and is a more accurate determination of inhibitory constants in a fluorescence polarization assay than the Cheng-Pruskoff equation.^15 All inhibitory constants and calculated Ki values are summarized in Table 1.
Modified Cheng-Pruskoff equation containing a correction factor for protein concentration.

[3] = test system: 120 representative kinases (incl. JAK 1/2, ABL, FLT-3); test: KINOMEscan (DiscoverX) kinase profiling; assay type: binding; details: 5 μM, 120 kinases incl. JAK 1/2, ABL, qPCR
Protocol: KINOMEscan kinase profiling was performed as previously described (Fabian et al., 2005; Karaman et al., 2008). For most assays, kinase-tagged T7 phage strains were grown in parallel in 24-well blocks in an E. coli host derived from the BL21 strain. E. coli were grown to log-phase and infected with T7 phage from a frozen stock (multiplicity of infection=0.4) and incubated with shaking at 32° C. until lysis (90-150 minutes). The lysates were centrifuged (6,000×g) and filtered (0.2 μm) to remove cell debris. The remaining kinases were produced in HEK-293 cells and subsequently tagged with DNA for qPCR detection as previously described (Wodicka et al., 2010). […] The liganded beads were blocked with excess biotin and washed with blocking buffer (SeaBlock (Pierce), 1% BSA, 0.05% Tween 20, 1 mM DTT) to remove unbound ligand and to reduce non-specific phage binding. […] All reactions were performed in polypropylene 384-well plates in a final volume of 0.04 ml. […] The kinase concentration in the eluates was measured by qPCR and the data presented as % Ctrl (FIG. 1).

[4] = Metabolic stability in human hepatocytes; assay type: in vitro ADME; details: 120 min
Protocol: 13a was then evaluated within intact human and mouse hepatocytes. Like the s9 fractions, Verapamil was used as a positive control in the assay. Cryopreserved hepatocytes were thawed and plated to a working cell density of 0.5×10^6 viable cell/mL.

[5] = test system: MCL-1, MYC, cleaved PARP-1, Caspase-3; test: Western blotting of apoptosis markers and STAT5 transcriptional targets in K562 cells
Protocol: Proteins were extracted using RIPA buffer with protease and phosphates inhibitors and a careful protein determination were preformed (BCA protein assay kit, Pierce). […] The membranes were blocked with 5% nonfat milk for at least 1 h followed by an overnight incubation in primary antibody.
(§1) Downstream of STAT5, modulation of the STAT5 transcriptional targets, MCL-1, CYCLIND1/D2 and MYC was assessed.

[6] = test system: healthy human CD34+ umbilical cord cells; test: Cell viability, healthy CD34+ umbilical cord cells; assay type: cell-based
[7] = target: STAT3 (Homo sapiens, UniProt P40763); test: SPR binding, His-tagged STAT3; details: 25° C., Langmuir 1:1 binding model
Protocol: Interactions of His-tagged STAT3 and STAT5 with small molecules were investigated using SPR spectroscopy. The binding experiments were carried on a ProteOn XPR36 (Bio-Rad) biosensor at 25° C. using the HTE sensor chip (Bio-Rad, Ontario, Canada). The flow cells of the sensor chip were loaded with a nickel solution at 30 μL/min for 120 s to saturate the Tris-NTA surface with Ni(II) ions. […] When the injection of the compounds was completed, running buffer was allowed to flow over the immobilized substrates for the non-specifically bound inhibitors to dissociate for 600 s. Following dissociation of the compounds, the chip surface was regenerated with an injection of 1 M NaCl at a flow rate of 100 μL/min for 18 s. Interspot channel reference was used for non-specific binding corrections and the blank channel used with each analyte injection served as a double reference to correct for possible baseline drift. Data were analysed using ProteOn Manager Software version 3.1.

[8] = test system: phosphorylated STAT3 (Tyr 705); test: Western blotting of pSTAT3 in MDA-MB-231 cells; assay type: cell-based
Protocol: Proteins were extracted using RIPA buffer with protease and phosphates inhibitors and a careful protein determination were preformed (BCA protein assay kit, Pierce). In each assay, 30 μg of clarified whole cell extract were resolved on a 10% polyacrylamide-SDS gel and transferred to a nitrocellulose membrane (Bio-Rad). The membranes were blocked with 5% nonfat milk for at least 1 h followed by an overnight incubation in primary antibody.
Immunodetection was performed using antibodies against the total STAT5 (Cell Signaling #9363), phosphorylated STAT5 (Tyr 694) (Cell Signaling, cat. #9359), total STAT3 (Cell Signaling #4904) and phosphorylated STAT3 (Tyr 705) (Cell Signaling #9661), Cleaved Caspase-3 (Asp175) (Cell Signaling #9661), Cleaved-Parp-1 (ab72805) Anti-Cyclin D1 (Abcam ab16663), Anti-Cyclin-D2 (Abcam ab94685), Anti-c-Myc (Abcam ab32072) and β-actin (Cell Signaling #3700) as a loading control, followed by fluorescent conjugated goat secondary antibodies Alexa Fluor 488 (Cell Signaling #4408) and Alexa Fluor 647.
as §1

[9] = Metabolic stability in pooled mouse liver s9 fractions with NADPH; assay type: in vitro ADME; details: 60 min
Protocol: For the pooled s9 fractions, solution of the s9 fraction along with NADPH was added to each well. […] The positive control used in the assay was Verapamil, a known drug to be metabolized by liver enzymes. The reaction was started by the addition of 13a and performed in duplicate. Aliquots were taken from the reaction solution at 0 min and 60 min. The reaction was stopped by the addition of cold methanol. Samples were then analyzed through LC-MS/MS to determine the metabolic profile.

Chain of STAT3 (P40763 whole entry): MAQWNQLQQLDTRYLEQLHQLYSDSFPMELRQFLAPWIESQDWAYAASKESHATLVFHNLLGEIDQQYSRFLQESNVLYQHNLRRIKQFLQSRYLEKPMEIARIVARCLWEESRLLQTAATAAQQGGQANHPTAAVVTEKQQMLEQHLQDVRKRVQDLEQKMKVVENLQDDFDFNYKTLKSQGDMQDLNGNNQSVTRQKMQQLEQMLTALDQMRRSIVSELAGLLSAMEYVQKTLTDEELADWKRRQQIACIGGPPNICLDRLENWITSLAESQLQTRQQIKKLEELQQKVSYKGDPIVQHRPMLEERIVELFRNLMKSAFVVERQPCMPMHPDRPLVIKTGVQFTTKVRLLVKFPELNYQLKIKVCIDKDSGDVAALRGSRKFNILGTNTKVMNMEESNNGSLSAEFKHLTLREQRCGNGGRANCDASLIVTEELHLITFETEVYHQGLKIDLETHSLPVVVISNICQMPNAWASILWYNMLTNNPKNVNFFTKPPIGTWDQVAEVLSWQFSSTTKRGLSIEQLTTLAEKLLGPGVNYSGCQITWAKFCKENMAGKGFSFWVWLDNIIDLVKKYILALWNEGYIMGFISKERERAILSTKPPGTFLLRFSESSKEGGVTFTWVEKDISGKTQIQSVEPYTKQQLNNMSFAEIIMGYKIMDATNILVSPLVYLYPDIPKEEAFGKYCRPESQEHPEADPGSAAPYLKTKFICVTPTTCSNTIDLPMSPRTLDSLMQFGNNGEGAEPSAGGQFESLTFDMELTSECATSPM
Chain of wildtype STAT3 protein (P40763 whole entry, species assumed, the tested form may be a part): as the sequence (P40763 whole entry) above

CC(C)(C)c1cc(CN(C(=O)CN(Cc2ccc(Cl)cc2)S(=O)(=O)c2c(F)c(F)c(F)c(F)c2F)c2ccc(C(=O)O)c(O)c2)cc(C(C)(C)C)c1 [Compound 13a, 4-(2-((N-(4-chlorobenzyl)-2,3,4,5,6-pentafluorophenyl)sulfonamido)-N-(3,5-di-tert-butylbenzyl)acetamido)-2-hydroxybenzoic Acid]
stability to glutathione conjugation [1]: stable to glutathione conjugation
Ki [2]: > 60000 nM
effects against the bank of kinases [3]: negligible effects
recovered in human hepatocytes [4]: 68.56%
recovered in boiled human hepatocytes (negative control) ([4]; boiled hepatocytes): ~85%
MYC (c-MYC) expression ([5]; K562, 5 hrs): dose-dependant decreases; also recorded: dose-dependent decreases
MCL-1 expression ([5]; K562, 24 hrs, 15 μM): complete knockdown
apoptosis (cleaved PARP-1, Caspase-3) ([5]; K562, 24 hrs, 15 μM): undergo cell death
effect on cell viability of healthy CD34+ cells ([6]; 10 μM): little reduction in cell viability; also recorded: little effect
difference in sensitivity CD34+ vs MV-4;11 cells ([6]; therapeutic window): approximate order of magnitude difference
Kd [7]: 287 ± 29 nM
pSTAT3 inhibition ([8]; MDA-MB-231, doses corresponding to STAT5 inhibition): not inhibited
total STAT3 and STAT5 protein levels ([8]; MDA-MB-231 and leukemic cell line): neither total STAT3 or STAT5 protein levels were affected
recovered in mouse liver s9 (MMLS9) fractions [9]: 6.96%
